According to PMC9649612, “Molecular docking and biochemical validation of (-)-syringaresinol-4-O-β-D-apiofuranosyl-(1→2)-β-D-glucopyranoside binding to an allosteric site in monoamine transporters” (Frontiers in Pharmacology, 2022):

Key:
[1] = target: T1, hSERT Q562N (S2 site mutant) (Homo sapiens, UniProt P31645, Q562N); test: ASP+ binding in digitonin-permeabilized HeLa cells expressing hSERT Q562N; settings: 10 μM ASP+, read-out: SAG IC50 for binding
T1 construct: expressed in transfected cells; host or cells: HeLa (ATCC CCL-2), transient, pcDNA3.1
Procedure: (§1) The mutants used for this study were constructed in the WT background carried by the expression plasmids for hSERT, hDAT, or hNET under the control of CMV promotor in pcDNA3.1 vector, respectively. All mutants were generated using the Mut Express II Fast Mutagenesis Kit (Vazyme) and confirmed by full-length DNA sequencing.
(§2) HeLa cells were cultured in Dulbecco’s Modified Eagle’s Medium supplemented with 10% fetal bovine serum, 100 units/ml penicillin, and 100 μg/ml streptomycin at 37°C in a humidified 5% CO2 incubator. Cells were plated in a 6-well culture plate and grown overnight. Cells at ∼70% confluence were transfected with hSERT, hDAT, or hNET cDNA in pcDNA3.1 by lipofectamine 2000. […] After grown for additional 12–16 h, the cells were assayed for APP^+ or ASP^+ fluorescence image acquisition.
(§3) The cells expressing WT or mutants of hSERT, hDAT, or hNET were wet mounted on polylysine coated glass slides in 12-well plates and applied for the indicated treatments. […] The extent of APP^+ accumulated in the cells was determined by confocal imaging analysis. ASP^+ binding to SERT in the cell membrane was measured with digitonin-permeabilized cells ([Li M. et al., 2022a]). […] After removing excess ASP^+ by rapid washing three times, ASP^+ binding was determined by confocal imaging analysis.
(§4) Images were analyzed using Zen Blue software. […]

[2] = target: T2, hNET K541G (S2 site mutant) (Homo sapiens, UniProt P23975, K541G); test: APP+ transport in HeLa cells expressing hNET mutant K541G; assay type: cell-based; settings: intact HeLa cells, read-out: SAG IC50
T2 construct: expressed in transfected cells; host or cells: HeLa
Procedure: as §1, §2, §3, §4

[3] = target: T3, hNET Q314A (S2 site mutant) (Homo sapiens, UniProt P23975, Q314A); test: APP+ transport in HeLa cells expressing hNET mutant Q314A; assay type: cell-based; settings: intact HeLa cells, read-out: SAG IC50
T3 construct: expressed in transfected cells; host or cells: HeLa
Procedure: as §1, §2, §3, §4

[4] = target: T4, hSERT P560G (S2 site mutant) (Homo sapiens, UniProt P31645, P560G); test: APP+ transport in HeLa cells expressing hSERT mutant P560G; assay type: cell-based; settings: 2 μM APP+ 5 min, intact HeLa cells, read-out: SAG IC50 for transport
T4 construct: expressed in transfected cells; host or cells: HeLa (ATCC CCL-2), transient, pcDNA3.1
Procedure: as §1, §2, §3, §4

[5] = target: T5, hSERT I327A (S2 site mutant) (Homo sapiens, UniProt P31645, I327A); test: ASP+ binding in digitonin-permeabilized HeLa cells expressing hSERT I327A; settings: 10 μM ASP+, read-out: SAG IC50 for binding
T5 construct: expressed in transfected cells; host or cells: HeLa (ATCC CCL-2), transient, pcDNA3.1
Procedure: as §1, §2, §3, §4

[6] = target: T6, hSERT D328A (S2 site mutant) (Homo sapiens, UniProt P31645, D328A); test: APP+ transport in HeLa cells expressing hSERT mutant D328A; assay type: cell-based; settings: 2 μM APP+ 5 min, intact HeLa cells, read-out: SAG IC50 for transport
T6 construct: expressed in transfected cells; host or cells: HeLa (ATCC CCL-2), transient, pcDNA3.1
Procedure: as §1, §2, §3, §4

[7] = target: T7, hSERT S438T (S1 site mutant) (Homo sapiens, UniProt P31645, S438T); test: APP+ transport in HeLa cells expressing hSERT mutant S438T; assay type: cell-based; settings: 2 μM APP+ 5 min, intact HeLa cells, read-out: SAG IC50 for transport
T7 construct: expressed in transfected cells; host or cells: HeLa
Procedure: as §1, §2, §3, §4

[8] = target: T8, hDAT V152F (S1 site mutant) (Homo sapiens, UniProt Q01959, V152F); test: APP+ transport in HeLa cells expressing hDAT mutant V152F; assay type: cell-based
T8 construct: expressed in transfected cells; host or cells: HeLa
Procedure: as §1, §2, §3, §4

[9] = target: T9, hSERT S559A (S2 site mutant) (Homo sapiens, UniProt P31645, S559A); test: APP+ transport in HeLa cells expressing hSERT mutant S559A; assay type: cell-based; settings: 2 μM APP+ 5 min, intact HeLa cells, read-out: SAG IC50 for transport
T9 construct: expressed in transfected cells; host or cells: HeLa (ATCC CCL-2), transient, pcDNA3.1
Procedure: as §1, §2, §3, §4

[10] = target: T10, hSERT T497A (S2 site mutant) (Homo sapiens, UniProt P31645, T497A); test: ASP+ binding in digitonin-permeabilized HeLa cells expressing hSERT T497A; settings: 10 μM ASP+, read-out: SAG IC50 for binding
T10 construct: expressed in transfected cells; host or cells: HeLa (ATCC CCL-2), transient, pcDNA3.1
Procedure: as §1, §2, §3, §4

[11] = target: T11, hSERT E494Q (S2 site mutant) (Homo sapiens, UniProt P31645, E494Q); test: APP+ transport in HeLa cells expressing hSERT mutant E494Q; assay type: cell-based; settings: 2 μM APP+ 5 min, intact HeLa cells, read-out: SAG IC50 for transport
T11 construct: expressed in transfected cells; host or cells: HeLa (ATCC CCL-2), transient, pcDNA3.1
Procedure: as §1, §2, §3, §4

[12] = target: T12, hSERT F556A (S2 site mutant) (Homo sapiens, UniProt P31645, F556A); test: APP+ transport in HeLa cells expressing hSERT mutant F556A; assay type: cell-based; settings: 2 μM APP+ 5 min, intact HeLa cells, read-out: SAG IC50 for transport
T12 construct: expressed in transfected cells; host or cells: HeLa (ATCC CCL-2), transient, pcDNA3.1
Procedure: as §1, §2, §3, §4

[13] = target: T13, hDAT F320A (S2 site mutant) (Homo sapiens, UniProt Q01959, F320A); test: APP+ transport in HeLa cells expressing hDAT mutant F320A; assay type: cell-based
T13 construct: expressed in transfected cells; host or cells: HeLa
Procedure: as §1, §2, §3, §4

[14] = target: T14, hNET T474Q (S2 site mutant) (Homo sapiens, UniProt P23975, T474Q); test: APP+ transport in HeLa cells expressing hNET mutant T474Q; assay type: cell-based
T14 construct: expressed in transfected cells; host or cells: HeLa
Procedure: as §1
(§5) HeLa cells were cultured in Dulbecco’s Modified Eagle’s Medium supplemented with 10% fetal bovine serum, 100 units/ml penicillin, and 100 μg/ml streptomycin at 37°C in a humidified 5% CO2 incubator. Cells were plated in a 6-well culture plate and grown overnight. Cells at ∼70% confluence were transfected with hSERT, hDAT, or hNET cDNA in pcDNA3.1 by lipofectamine 2000. Transfected cells were incubated for 24 h at 37°C with 5% CO2 and then transferred into a 12-well plate placed with polylysine coated slides. After grown for additional 12–16 h, the cells were assayed for APP^+ or ASP^+ fluorescence image acquisition.
(§6) The cells expressing WT or mutants of hSERT, hDAT, or hNET were wet mounted on polylysine coated glass slides in 12-well plates and applied for the indicated treatments. In brief, the cells were washed twice with 500 μl KRH buffer containing 20 mM HEPES, pH 7.4, 120 mM NaCl, 1.3 mM KCl, 2.2 mM CaCl2, 1.2 mM MgSO4, and 0.1% (w/v) glucose. […] Excess APP^+ was then removed by rapid washing three times with 500 μl KRH buffer. The extent of APP^+ accumulated in the cells was determined by confocal imaging analysis. ASP^+ binding to SERT in the cell membrane was measured with digitonin-permeabilized cells ([Li M. et al., 2022a]). […] After removing excess ASP^+ by rapid washing three times, ASP^+ binding was determined by confocal imaging analysis.
(§7) Images were analyzed using Zen Blue software.
(§8) Nonlinear regression fits of experimental and calculated data were performed with Origin (Origin Lab). The statistical analysis given was from multiple experiments. Data with error bars in the figures represent the mean ± SD for at least 10 measurements per condition in one experiment or the mean ± SEM from at least three experiments as indicated, respectively. […]

[15] = target: T15, hDAT W562A (S2 site mutant) (Homo sapiens, UniProt Q01959, W562A); test: APP+ transport in HeLa cells expressing hDAT mutant W562A; assay type: cell-based
T15 construct: expressed in transfected cells; host or cells: HeLa
Procedure: as §1, §2, §3, §4

[16] = target: T5, hSERT I327A (S2 site mutant); test: APP+ transport in HeLa cells expressing hSERT mutant I327A; assay type: cell-based; settings: 2 μM APP+ 5 min, intact HeLa cells, read-out: SAG IC50 for transport
Procedure: as §1, §2, §3, §4

[17] = target: T16, hSERT P561G (S2 site mutant) (Homo sapiens, UniProt P31645, P561G); test: ASP+ binding in digitonin-permeabilized HeLa cells expressing hSERT P561G; settings: 10 μM ASP+, read-out: SAG IC50 for binding
T16 construct: expressed in transfected cells; host or cells: HeLa (ATCC CCL-2), transient, pcDNA3.1
Procedure: as §1, §2, §3, §4

[18] = target: T17, hNET D473N (S2 site mutant) (Homo sapiens, UniProt P23975, D473N); test: APP+ transport in HeLa cells expressing hNET mutant D473N; assay type: cell-based
T17 construct: expressed in transfected cells; host or cells: HeLa
Procedure: as §1, §5, §6, §7, §8

[19] = target: T16, hSERT P561G (S2 site mutant); test: APP+ transport in HeLa cells expressing hSERT mutant P561G; assay type: cell-based; settings: 2 μM APP+ 5 min, intact HeLa cells, read-out: SAG IC50 for transport
Procedure: as §1, §2, §3, §4

[20] = target: T18, hNET F317A (S2 site mutant) (Homo sapiens, UniProt P23975, F317A); test: APP+ transport in HeLa cells expressing hNET mutant F317A; assay type: cell-based
T18 construct: expressed in transfected cells; host or cells: HeLa
Procedure: as §1, §2, §3, §4

T14 sequence (P23975 whole entry T474Q): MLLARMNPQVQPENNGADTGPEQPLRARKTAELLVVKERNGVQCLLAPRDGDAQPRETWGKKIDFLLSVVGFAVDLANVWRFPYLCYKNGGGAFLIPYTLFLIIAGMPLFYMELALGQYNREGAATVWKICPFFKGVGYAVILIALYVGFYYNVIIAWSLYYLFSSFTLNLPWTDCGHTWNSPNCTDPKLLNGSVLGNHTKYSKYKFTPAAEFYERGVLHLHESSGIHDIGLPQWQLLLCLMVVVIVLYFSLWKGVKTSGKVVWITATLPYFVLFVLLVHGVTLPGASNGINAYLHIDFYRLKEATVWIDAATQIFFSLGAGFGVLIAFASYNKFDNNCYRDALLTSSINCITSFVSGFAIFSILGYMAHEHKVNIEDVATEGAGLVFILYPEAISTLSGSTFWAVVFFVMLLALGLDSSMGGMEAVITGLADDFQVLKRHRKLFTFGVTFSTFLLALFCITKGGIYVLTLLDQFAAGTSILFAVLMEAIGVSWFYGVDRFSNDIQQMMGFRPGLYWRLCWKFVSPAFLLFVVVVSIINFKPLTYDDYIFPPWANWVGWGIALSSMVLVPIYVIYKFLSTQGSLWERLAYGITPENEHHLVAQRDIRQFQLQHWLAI
T17 sequence (P23975 whole entry D473N): as the sequence (P23975 whole entry T474Q) above, with D473N, Q474T counted along it
T13 sequence (Q01959 whole entry F320A): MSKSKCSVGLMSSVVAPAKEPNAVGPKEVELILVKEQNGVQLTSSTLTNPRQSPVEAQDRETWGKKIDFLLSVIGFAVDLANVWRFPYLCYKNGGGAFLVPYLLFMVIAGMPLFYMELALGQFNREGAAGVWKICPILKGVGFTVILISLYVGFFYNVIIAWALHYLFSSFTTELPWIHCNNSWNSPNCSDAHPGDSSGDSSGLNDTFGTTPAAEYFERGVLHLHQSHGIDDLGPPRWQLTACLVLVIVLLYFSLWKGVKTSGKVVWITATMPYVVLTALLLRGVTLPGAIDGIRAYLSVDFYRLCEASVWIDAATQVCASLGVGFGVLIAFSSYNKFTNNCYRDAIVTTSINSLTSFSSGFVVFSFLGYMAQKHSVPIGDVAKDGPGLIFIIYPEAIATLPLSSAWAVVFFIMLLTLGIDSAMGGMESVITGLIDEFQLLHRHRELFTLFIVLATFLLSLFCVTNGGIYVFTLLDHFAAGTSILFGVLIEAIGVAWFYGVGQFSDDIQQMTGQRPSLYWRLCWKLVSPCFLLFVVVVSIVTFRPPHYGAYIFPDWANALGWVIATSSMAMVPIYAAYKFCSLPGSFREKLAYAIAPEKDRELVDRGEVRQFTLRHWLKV
T18 sequence (P23975 whole entry F317A): as the sequence (P23975 whole entry T474Q) above, with F317A, Q474T counted along it
T8 sequence (Q01959 whole entry V152F): as the sequence (Q01959 whole entry F320A) above, with V152F, A320F counted along it
T15 sequence (Q01959 whole entry W562A): as the sequence (Q01959 whole entry F320A) above, with A320F, W562A counted along it
T3 sequence (P23975 whole entry Q314A): as the sequence (P23975 whole entry T474Q) above, with Q314A, Q474T counted along it
T2 sequence (P23975 whole entry K541G): as the sequence (P23975 whole entry T474Q) above, with Q474T, K541G counted along it

“(-)-Syringaresinol-4-O-β-D-apiofuranosyl-(1→2)-β-D-glucopyranoside [SAG]” was tested, and the IC50 [1] was 450 ± 23 µM, the IC50 [2] was 79.8 ± 3.3 µM and the IC50 [3] was 4.37 ± 1.06 µM. For the same substance, the IC50 [4] was 243 ± 10 µM, the IC50 [5] was 48.3 ± 4.6 µM and the IC50 [6] was 113 ± 5 µM. For the same substance, the IC50 [7] was 10.3 ± 0.49 µM, the “Effect of mutation on SAG inhibition potency” value ([8]; hDAT S1 residue Val152 replaced) was “little effect” and the IC50 ([8]; hDAT V152F (S1), intact HeLa cells, read-out: SAG IC50) was 26.6 ± 2.8 µM. The IC50 [9] was 20.2 ± 1.9 µM, the IC50 [10] was 152 ± 12 µM and the IC50 [11] was 153 ± 2 µM. For the same substance, the IC50 [12] was 41 ± 6.5 µM, the “Decrease in SAG IC50 compared with WT” value ([13]; hDAT F320A vs WT-hDAT) was about 50% and the IC50 ([13]; hDAT F320A, intact HeLa cells, read-out: SAG IC50) was 16.8 ± 0.7 µM. For the same substance, the “Change in SAG inhibition potency compared to WT” value (from here on “Change in SAG inhibition potency”) ([14]; hNET T474Q vs WT-hNET) was “little change”, the “Decrease in SAG inhibition potency compared with WT” value ([14]; hNET T474Q vs WT-hNET) was “less than 3 folds” and the IC50 ([14]; hNET T474Q, intact HeLa cells, read-out: SAG IC50) was 49.3 ± 7.9 µM. The “Increase in SAG IC50 compared with WT” value ([15]; hDAT W562A vs WT-hDAT) was “more than 30 fold”, the IC50 ([15]; hDAT W562A, intact HeLa cells, read-out: SAG IC50) was over 1000 µM and the IC50 [16] was 25.5 ± 1.2 µM. The IC50 [17] was over 1000 µM, the “Change in SAG inhibition potency” value ([18]; hNET D473N vs WT-hNET) was “little change” and the “Decrease in SAG inhibition potency compared with WT” value ([18]; hNET D473N vs WT-hNET) was “less than 3 folds”. For the same substance, the IC50 ([18]; hNET D473N, intact HeLa cells, read-out: SAG IC50) was 42.7 ± 4.7 µM, the IC50 [19] was over 1000 µM and the “Change in SAG inhibition potency” value ([20]; hNET F317A vs WT-hNET) was “little change”. The IC50 ([20]; hNET F317A, intact HeLa cells, read-out: SAG IC50) was 36.7 ± 7.6 µM.
